From patent US20160038454A1, “INTRAVENOUS FORMULATIONS OF […] AS IMMUNOMODULATORS AND […] AGENTS” (priority 2013, published 2016)
Where two headings read alike, the source gives them in different places.

Assays:
[1] = test system: IL-2 production by Jurkat cells; test: cells; type: cell-based, human; conditions: for IC50: read-out: Immunosuppression IL-2 (IC50)
Description: Test samples can be diluted to 1 mM in complete tissue culture medium. Aliquots are placed in microculture plates coated with anti-CD3 antibody (used to stimulate the production of IL-2 by Jurkat cells), and serial dilutions are prepared so that the final concentration encompass the range of 0.001 to 10,000 nM in log increments. Cells from an exponentially expanding culture of Jurkat human T cell line (#TIB-152 obtained from American Type Culture Collection, Manassas, Va.) are harvested, washed once by centrifugation, re-suspended in complete tissue culture medium, and diluted to a concentration of 2×10^6 cells/ml. A volume of 50 μl of Jurkat cells (1×10^5 cells) is added to wells containing 100 μl of the diluted compounds, 50 μl of PMA (10 ng/ml) is added to each well, and the plates are incubated at 37° C. in a 5% CO2 incubator. After 24 hours, the plates are centrifuged to pellet the cells, 150 μl of supernatant is removed from each well, and the samples are stored at −20° C. The stored supernatants are analyzed for human IL-2 concentration using the Luminex 100 (Luminex Corporation, Austin, Tex.), Luminex microspheres coupled with anti-IL-2 capture antibody, and fluorochrome-coupled anti-IL-2 detection antibody. The data are expressed as pg/ml of IL-2.

[2] = test system: human T cell lymphoma (Jurkat) cells; test: in vitro; type: cell-based
Description: (§1) Test compounds may be dissolved in DMSO at a concentration of 20 mM. Further dilutions may be done in RPMI1640 medium (GIBCO, Rockville, Md.) supplemented with 10% Fetal Calf Serum (HyClone Laboratories, Logan, Utah).
(§2) Cytotoxicity of the compounds is determined in a standard MTT assay using Cell Proliferation Kit I (#1 465 007, Roche Diagnostics, Mannheim, Germany). Briefly, human T cell lymphoma (Jurkat) cells (4×10^5 per well) are cultured for 24 h, in 96-well tissue culture plates, in the presence of serial three-fold dilutions of test compounds or medium containing the same concentration of DMSO as in the test samples at each dilution point. The cultures are then supplemented with 10 μl/well MTT reagent for 4 h and then with 0.1 ml/well solubilizing reagent for an additional 16 h. Optical density at 570 nm (OD570) is measured on a ThermoScan microplate reader (Molecular Devices, Menlo Park, Calif.).

in vitro = type: cell-based, human; conditions: human; Jurkat cells; test compounds incubated in serum for 24 hrs; read-out: Viability/Cytotoxicity MTT (ED50)
Description: as §1, §2

PC12 cells = conditions: cited from earlier work
[3] = test system: primary mesencephalic neuron/glia mixed culture; conditions: Li et al., 2004; cited from earlier work
[4] = TK: plasma triptolide levels, Calvert study (emulsion); type: in vivo, rodents; conditions: for Plasma Triptolide Concentration: 0.15 mg/kg (emulsion)
Description: Triptolide prodrugs are generally believed to be safer than triptolide. […] Triptolide prodrugs as an emulsion formulation are believed to have a toxicokinetic profile characterized by a flat AUC with a minimized Cmax. [In conjunction, it was postulated that a sustained inhibition of RNA polymerase is needed for optimum efficacy which in turn requires a pharmcokinetic profile of constant exposure to drug]. […] The no effect dose (“NOAEL”) of PG796(MRx102) again exceeded 1.5 mg/kg/day intravenously for seven days in rodents confirming the initial results. It is interesting to ask why a prodrug of triptolide would be safer than the natural product itself; while not wishing to be bound by theory, perhaps the answer lies in the pharmacokinetic profile of triptolide administered either directly or released from its carrier, PG796(MRx102). […] It also remained above the therapeutic levels (shown as a thick line without symbols). The difference in the Cmax/AUC profile of PG796(MRx102) vs. triptolide is believed to be due to the physiochemical properties of the lipid prodrug/emulsion formulation combination. In general, triptolide prodrugs having a cLogP greater than 0.5 are more lipid-soluble than water soluble and are expected to take longer to convert to the drug form; such characteristics may yield a flatter conversion profile and less of a drug-release Cmax spike.
TK comparison of triptolide levels in Calvert and SRI studies—Males and Females

[5] = molecular target: T1, human XPB (also known as ERCC3) (Homo sapiens, UniProt P19447); conditions: Titov et al. 2011; cited from earlier work
T1 sequence (P19447 1-782): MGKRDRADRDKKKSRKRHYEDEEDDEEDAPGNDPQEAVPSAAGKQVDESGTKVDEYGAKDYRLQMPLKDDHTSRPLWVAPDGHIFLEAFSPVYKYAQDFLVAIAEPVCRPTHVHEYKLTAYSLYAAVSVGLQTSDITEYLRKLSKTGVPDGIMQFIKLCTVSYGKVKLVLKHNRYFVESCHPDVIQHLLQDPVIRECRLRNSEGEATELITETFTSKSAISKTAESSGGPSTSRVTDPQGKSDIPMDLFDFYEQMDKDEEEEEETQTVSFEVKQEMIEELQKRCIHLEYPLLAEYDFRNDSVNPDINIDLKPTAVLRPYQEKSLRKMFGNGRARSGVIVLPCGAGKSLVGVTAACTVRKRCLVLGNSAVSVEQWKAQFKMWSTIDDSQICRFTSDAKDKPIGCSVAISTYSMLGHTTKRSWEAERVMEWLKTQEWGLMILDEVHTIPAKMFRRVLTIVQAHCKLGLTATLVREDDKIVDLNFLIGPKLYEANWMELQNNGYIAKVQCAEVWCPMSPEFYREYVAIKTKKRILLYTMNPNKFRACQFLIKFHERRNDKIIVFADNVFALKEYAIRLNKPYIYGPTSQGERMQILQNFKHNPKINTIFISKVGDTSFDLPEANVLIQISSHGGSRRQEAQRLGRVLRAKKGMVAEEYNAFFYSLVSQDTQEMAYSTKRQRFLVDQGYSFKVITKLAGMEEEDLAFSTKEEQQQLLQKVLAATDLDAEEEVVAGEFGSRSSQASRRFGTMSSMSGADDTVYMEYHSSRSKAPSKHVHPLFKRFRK

[6] = test system: lipopolysaccharide (LPS)-activated microglial activity; conditions: Zhou et al., 2003; cited from earlier work
bleomycin-induced PF = conditions: G. Krishna et al., 2001; cited from earlier work
patients with AML = conditions: given intravenously; Xia Zhi Lin and Zhen You Lan 2008; cited from earlier work
[7] = test system: primary cultured rat mesencephalic neurons; conditions: Li et al., 2003; cited from earlier work
rat model of PD = conditions: 0.5-1 μg/kg; Cheng et al., 2002; cited from earlier work
[8] = test system: IL-2 production by Jurkat cells; conditions: cited from earlier work
[9] = test system: human T cell lymphoma (Jurkat) cells; conditions: cited from earlier work
[10] = Conversion to triptolide using human serum; type: in vitro ADME
Description: (Xia Zhi Lin and Zhen You Lan, Haematologica, 93:14 (2008)).

[11] = FIG. 1, triptolide provided alone
[12] = incubated in human serum compared with mouse serum

## CC(C)[C@]12O[C@H]1[C@@H]1O[C@]13[C@@]1(OC(=O)O[C@H]21)[C@H](Cl)C[C@H]1C2=C(CC[C@@]13C)C(=O)OC2 [PG762]
[1]; Homo sapiens, Jurkat, 24 h
  IC50: 9 nM
[2]; Jurkat cells, comparison with triptolide or PG490-88
  cytotoxic activity in MTT assay (in words): comparable potency
In vitro
  EC50 at 24 h: 60 nM

## triptolide [PG490]
[1]; Jurkat cells, test compounds incubated in serum for 24 hrs
  IC50: 4 nM
PC12 cells
  β-amyloid-induced apoptosis: markedly inhibit
[3]
  LPS-induced decrease in 3H-dopamine uptake and loss of tyrosine hydroxylase-positive neurons: attenuates
[4]; females, 0 hrs
  Plasma Triptolide Concentration: 0 ng/mL
[4]; females, 0.25 hrs
  Plasma Triptolide Concentration: 74.6 ng/mL
[4]; females, 0.5 hrs
  Plasma Triptolide Concentration: 18.4 ng/mL
[4]; females, 1 hrs
  Plasma Triptolide Concentration: 13.2 ng/mL
[4]; females, 2 hrs
  Plasma Triptolide Concentration: 0 ng/mL
[4]; females, 24 hrs
  Plasma Triptolide Concentration: 0 ng/mL
[4]; males, 0 hrs
  Plasma Triptolide Concentration: 0 ng/mL
[4]; males, 0.25 hrs
  Plasma Triptolide Concentration: 59.0 ng/mL
[4]; males, 0.5 hrs
  Plasma Triptolide Concentration: 14.9 ng/mL
[4]; males, 1 hrs
  Plasma Triptolide Concentration: 3.6 ng/mL
[4]; males, 2 hrs
  Plasma Triptolide Concentration: 0 ng/mL
[4]; males, 24 hrs
  Plasma Triptolide Concentration: 0 ng/mL
[4]; [11]
  triptolide Cmax (in words): very high Cmax
  triptolide in circulation by two hours post-dose: none remained in circulation
[5]
  DNA-dependent ATPase activity of XPB: inhibit
  binding to human XPB: covalently bind
[6]
  LPS-activated microglial activity (nitrite accumulation, TNF-α and IL-1β release): powerful inhibitory influence

## 14-succinimide ester of triptolide
bleomycin-induced PF
  bleomycin-induced PF: block bleomycin-induced PF

## triptolide 14-succinate [PG490-88]
[1]; [12]
  activity in IL-2 inhibition assay after incubation in human serum vs mouse serum: much less active
[2]; [12]
  activity in MTT assay after incubation in human serum vs mouse serum: much less active
Patients with AML
  clinical activity in patients with AML: promising activity

## CC(C)[C@]1(O)[C@H](Cl)[C@@H]2O[C@]23[C@]2(O[C@H]2C[C@H]2C4=C(CC[C@@]23C)C(=O)OC4)[C@@H]1O [Tripchlorolide]
[7]
  protection from neurotoxic lesion induced by 1-methyl-4-phenylpyridinium ion: protects dopaminergic neurons
Rat model of PD
  recovery of rats undergoing neurosurgery: improves recovery

## CC(C)[C@]12O[C@H]1[C@@H]1O[C@]13[C@]1(O[C@H]1C[C@H]1C4=C(CC[C@@]13C)C(=O)OC4)[C@H]2F [PG763, 14-deoxy-14α-fluoro triptolide]
[8]
  inhibition of IL-2 (as reported in U.S. application 60/449,976): inhibition of IL-2
[9]
  cytotoxicity in Jurkat cells (as reported in U.S. application 60/449,976): cytotoxicity in human T cell lymphoma (Jurkat) cells

## CC(C)[C@]12O[C@H]1[C@@H]1O[C@]13[C@]1(O[C@H]1C[C@H]1C4=C(CC[C@@]13C)C(=O)OC4)[C@@H]2OC(=O)CCC(=O)[O-].[Na+] [PG490-88Na]
[10]
  conversion to triptolide in human serum: incompletely converted
